Activity calls are given as the source filed them. No cut-off for these calls is given here.
Experiments:
[1] = target: DNA topoisomerase 2-alpha (Homo sapiens) (UniProt P11388); test: (§1) Poison activity at recombinant human topoisomerase-2alpha expressed in Saccharomyces cerevisiae assessed as stabilization of DNA-enzyme cleavage complex by measuring concentration required to generate 10% double-stranded DNA breaks using supercoiled pBR322 DNA as substrate incubated for 6 mins measured after 30 mins by ethidium bromide staining based agarose gel electrophoresis method
Sequence of DNA topoisomerase 2-alpha (Homo sapiens) (P11388 whole entry): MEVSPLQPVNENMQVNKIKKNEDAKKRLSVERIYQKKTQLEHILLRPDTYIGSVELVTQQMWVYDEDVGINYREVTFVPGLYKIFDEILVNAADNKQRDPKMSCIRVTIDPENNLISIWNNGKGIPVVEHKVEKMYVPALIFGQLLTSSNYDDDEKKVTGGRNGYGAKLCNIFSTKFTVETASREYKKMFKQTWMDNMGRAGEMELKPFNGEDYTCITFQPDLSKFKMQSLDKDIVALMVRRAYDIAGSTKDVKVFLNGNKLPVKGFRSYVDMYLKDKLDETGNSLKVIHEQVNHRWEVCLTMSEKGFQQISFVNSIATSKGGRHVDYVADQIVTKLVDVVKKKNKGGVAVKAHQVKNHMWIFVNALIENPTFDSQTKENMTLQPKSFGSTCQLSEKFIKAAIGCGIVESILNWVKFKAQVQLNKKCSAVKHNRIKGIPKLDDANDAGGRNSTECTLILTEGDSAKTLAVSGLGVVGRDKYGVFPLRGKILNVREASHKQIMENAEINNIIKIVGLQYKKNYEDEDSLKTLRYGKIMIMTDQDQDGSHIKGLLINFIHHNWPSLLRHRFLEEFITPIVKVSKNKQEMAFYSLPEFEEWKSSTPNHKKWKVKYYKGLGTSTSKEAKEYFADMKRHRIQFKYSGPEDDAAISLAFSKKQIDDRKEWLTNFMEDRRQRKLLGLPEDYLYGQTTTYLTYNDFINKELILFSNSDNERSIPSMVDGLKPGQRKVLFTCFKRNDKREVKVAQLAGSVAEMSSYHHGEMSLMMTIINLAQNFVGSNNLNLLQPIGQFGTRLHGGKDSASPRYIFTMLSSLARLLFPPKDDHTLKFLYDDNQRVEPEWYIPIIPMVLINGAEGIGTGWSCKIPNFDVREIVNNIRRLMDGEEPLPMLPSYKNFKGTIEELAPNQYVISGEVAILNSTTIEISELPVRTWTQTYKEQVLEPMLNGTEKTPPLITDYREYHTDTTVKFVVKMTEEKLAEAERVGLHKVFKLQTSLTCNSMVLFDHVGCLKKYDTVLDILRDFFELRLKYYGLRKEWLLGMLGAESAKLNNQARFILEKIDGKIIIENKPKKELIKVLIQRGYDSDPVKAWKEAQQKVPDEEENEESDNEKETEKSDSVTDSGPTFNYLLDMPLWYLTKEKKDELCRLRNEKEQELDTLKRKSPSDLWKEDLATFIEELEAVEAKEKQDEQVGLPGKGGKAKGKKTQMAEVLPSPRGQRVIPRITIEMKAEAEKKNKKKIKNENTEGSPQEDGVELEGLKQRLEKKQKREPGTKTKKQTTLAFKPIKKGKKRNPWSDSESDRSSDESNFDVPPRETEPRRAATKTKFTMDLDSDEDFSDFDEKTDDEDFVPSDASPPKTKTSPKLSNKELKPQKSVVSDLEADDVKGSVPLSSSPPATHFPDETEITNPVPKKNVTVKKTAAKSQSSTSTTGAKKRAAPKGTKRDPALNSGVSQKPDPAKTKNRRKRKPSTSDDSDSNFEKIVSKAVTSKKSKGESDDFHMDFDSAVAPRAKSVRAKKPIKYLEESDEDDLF

[2] = target: DNA topoisomerase 2-beta (Homo sapiens) (UniProt Q02880); test: as §1, with “topoisomerase-2beta” for “topoisomerase-2alpha”
Sequence of DNA topoisomerase 2-beta (Homo sapiens) (Q02880 whole entry): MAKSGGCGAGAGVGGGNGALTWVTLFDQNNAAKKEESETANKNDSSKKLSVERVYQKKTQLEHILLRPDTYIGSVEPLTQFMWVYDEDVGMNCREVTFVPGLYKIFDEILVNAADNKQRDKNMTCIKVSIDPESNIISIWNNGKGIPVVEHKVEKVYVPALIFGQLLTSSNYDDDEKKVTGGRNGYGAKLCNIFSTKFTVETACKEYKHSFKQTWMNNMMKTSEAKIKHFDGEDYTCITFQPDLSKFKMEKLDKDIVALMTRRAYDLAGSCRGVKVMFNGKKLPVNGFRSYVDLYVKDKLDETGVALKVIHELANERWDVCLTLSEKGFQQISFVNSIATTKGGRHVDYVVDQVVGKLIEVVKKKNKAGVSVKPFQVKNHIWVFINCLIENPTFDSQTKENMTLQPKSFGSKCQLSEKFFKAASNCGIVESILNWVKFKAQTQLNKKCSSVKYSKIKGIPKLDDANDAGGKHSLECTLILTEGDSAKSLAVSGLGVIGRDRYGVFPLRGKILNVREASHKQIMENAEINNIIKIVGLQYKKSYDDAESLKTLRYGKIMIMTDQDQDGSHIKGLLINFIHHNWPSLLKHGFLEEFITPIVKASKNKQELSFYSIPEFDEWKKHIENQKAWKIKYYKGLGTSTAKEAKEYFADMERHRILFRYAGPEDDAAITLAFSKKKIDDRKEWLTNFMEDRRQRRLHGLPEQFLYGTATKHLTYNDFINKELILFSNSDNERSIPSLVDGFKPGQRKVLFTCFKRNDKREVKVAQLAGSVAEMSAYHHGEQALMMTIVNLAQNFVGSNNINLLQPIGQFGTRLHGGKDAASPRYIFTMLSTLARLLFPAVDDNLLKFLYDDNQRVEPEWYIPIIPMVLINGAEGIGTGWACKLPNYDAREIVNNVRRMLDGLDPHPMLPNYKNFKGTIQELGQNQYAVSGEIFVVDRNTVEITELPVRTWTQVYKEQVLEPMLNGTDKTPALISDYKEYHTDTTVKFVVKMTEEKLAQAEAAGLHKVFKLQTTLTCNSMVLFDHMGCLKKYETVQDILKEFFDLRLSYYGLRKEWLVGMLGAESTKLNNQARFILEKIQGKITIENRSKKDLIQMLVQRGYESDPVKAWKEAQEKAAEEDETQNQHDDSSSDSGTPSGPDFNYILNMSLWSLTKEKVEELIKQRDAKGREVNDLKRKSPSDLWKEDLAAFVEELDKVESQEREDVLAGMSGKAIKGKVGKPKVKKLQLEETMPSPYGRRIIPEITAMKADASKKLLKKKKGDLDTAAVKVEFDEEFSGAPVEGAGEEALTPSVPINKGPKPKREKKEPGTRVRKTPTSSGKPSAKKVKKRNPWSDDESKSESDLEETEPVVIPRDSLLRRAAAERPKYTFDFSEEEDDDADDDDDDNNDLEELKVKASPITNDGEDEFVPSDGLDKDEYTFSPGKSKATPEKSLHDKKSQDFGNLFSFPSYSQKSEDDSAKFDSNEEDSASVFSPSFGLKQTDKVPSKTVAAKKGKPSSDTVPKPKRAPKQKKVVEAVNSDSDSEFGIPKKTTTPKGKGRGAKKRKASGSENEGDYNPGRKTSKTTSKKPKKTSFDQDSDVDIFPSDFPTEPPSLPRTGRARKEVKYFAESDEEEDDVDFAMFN

[3] = target: DNA topoisomerase 2-alpha (Homo sapiens) (UniProt P11388); test: as §1, with “at 25 uM” for “by measuring concentration required to generate 10% double-stranded DNA breaks”
[4] = target: DNA topoisomerase 2-beta (Homo sapiens) (UniProt Q02880); test: as §1, with “topoisomerase-2beta” for “topoisomerase-2alpha”, “at 25 uM” for “by measuring concentration required to generate 10% double-stranded DNA breaks”
[5] = target: DNA topoisomerase 2-alpha (Homo sapiens) (UniProt P11388); test: Poison activity at recombinant human topoisomerase-2alpha expressed in Saccharomyces cerevisiae assessed as inhibition of DNA religation using single-stranded DNA at 25 uM incubated for 6 mins by agarose gel electrophoresis method
[6] = target: DNA topoisomerase 2-beta (Homo sapiens) (UniProt Q02880); test: Poison activity at recombinant human topoisomerase-2beta expressed in Saccharomyces cerevisiae assessed as inhibition of DNA religation using single-stranded DNA at 25 uM incubated for 6 mins by agarose gel electrophoresis method
[7] = target: DNA topoisomerase 2-alpha (Homo sapiens) (UniProt P11388); test: (§2) Inhibition of recombinant human topoisomerase-2alpha expressed in Saccharomyces cerevisiae assessed as increase in double-stranded DNA cleavage at 25 uM using supercoiled pBR322 DNA as substrate incubated for 6 mins measured after 30 mins by ethidium bromide staining based agarose gel electrophoresis method relative to etoposide
[8] = target: DNA topoisomerase 2-alpha (Homo sapiens) (UniProt P11388); test: Inhibition of recombinant human topoisomerase-2alpha expressed in Saccharomyces cerevisiae assessed as stabilization of DNA-enzyme cleavage complex at 25 uM incubated for […] followed by incubation in drug-free buffer by agarose gel electrophoresis method
[9] = target: DNA topoisomerase 2-beta (Homo sapiens) (UniProt Q02880); test: Inhibition of recombinant human topoisomerase-2beta expressed in Saccharomyces cerevisiae assessed as stabilization of DNA-enzyme cleavage complex at 25 uM incubated for 6 mins followed by incubation in drug-free buffer by agarose gel electrophoresis method
[10] = target: DNA topoisomerase 2-alpha (Homo sapiens) (UniProt P11388); test: as §2, with “single-stranded” for “double-stranded”
[11] = target: DNA topoisomerase 2-alpha (Homo sapiens) (UniProt P11388); test: as §2, with “total” for “double-stranded”
[12] = target: DNA topoisomerase 2-beta (Homo sapiens) (UniProt Q02880); test: as §2, with “topoisomerase-2beta” for “topoisomerase-2alpha”
[13] = target: DNA topoisomerase 2-beta (Homo sapiens) (UniProt Q02880); test: as §2, with “topoisomerase-2beta” for “topoisomerase-2alpha”, “single-stranded” for “double-stranded”
[14] = target: DNA topoisomerase 2-beta (Homo sapiens) (UniProt Q02880); test: as §2, with “topoisomerase-2beta” for “topoisomerase-2alpha”, “total” for “double-stranded”
[15] = target: DNA topoisomerase 2-beta (Homo sapiens) (UniProt Q02880); test: Inhibition of recombinant human topoisomerase-2beta expressed in Saccharomyces cerevisiae assessed as stabilization of DNA-enzyme cleavage complex at 50 uM incubated for 6 mins followed by incubation in drug-free buffer by agarose gel electrophoresis method
[16] = target: DNA topoisomerase 2-alpha (Homo sapiens) (UniProt P11388); conditions: 100 uM
Description: Poison activity at recombinant human topoisomerase-2alpha expressed in Saccharomyces cerevisiae assessed as inhibition of DNA religation using single-stranded DNA at 100 uM incubated for 6 mins by agarose gel electrophoresis method

[17] = target: DNA topoisomerase 2-alpha (Homo sapiens) (UniProt P11388); conditions: 100 uM; remark: listed apart in the source
Description: Inhibition of recombinant human topoisomerase-2alpha expressed in Saccharomyces cerevisiae assessed as stabilization of DNA-enzyme cleavage complex at 100 uM incubated for 10 mins followed by incubation in drug-free buffer by agarose gel electrophoresis method

fold change (FC) [7]	inhibition [8]	inhibition [9]	fold change (FC) [10]	fold change (FC) [11]	fold change (FC) [12]	fold change (FC) [13]	fold change (FC) [14]	inhibition [15]	inhibition [16]	inhibition [17]	Compound	Activity [1] [µM]	Activity [2] [µM]	Activity [3]	Activity [4]	inhibition [5]	inhibition [6]
1.93	Active	Active	1.06	1.38	4.66	4.27	4.54				COc1cc([C@@H]2c3cc4c(cc3[C@@H](NC(=O)CNCCCNCCNCCCN)[C@H]3COC(=O)[C@H]23)OCO4)cc(OC)c1O	20.5	25.3	inactive	inactive	Active	Active
0.9	Active	Active	0.87	0.88	2.9	3.63	3.13				COc1cc([C@@H]2c3cc4c(cc3[C@@H](NC(=O)CNCCCOCCCCOCCCN)[C@H]3COC(=O)[C@H]23)OCO4)cc(OC)c1O	98.9	49.9	inactive	inactive	Active	Active
								Active	Active	Active	COc1cc([C@@H]2c3cc4c(cc3[C@@H](O[C@@H]3O[C@@H]5CO[C@@H](C)O[C@H]5[C@H](O)[C@H]3O)[C@H]3COC(=O)[C@H]23)OCO4)cc(OC)c1O	> 100	> 100				Active
1.52	Active	Active	1.14	1.28	7.69	4.92	6.8				COc1cc([C@@H]2c3cc4c(cc3[C@@H](NC(=O)CNCCCNCCCCN)[C@H]3COC(=O)[C@H]23)OCO4)cc(OC)c1O	54.1	11	inactive	inactive	Active	Active

More lines, now with the values behind:

Compound	fold change (FC) [7]	inhibition [8]	inhibition [9]	fold change (FC) [10]	fold change (FC) [11]	fold change (FC) [12]	fold change (FC) [13]	fold change (FC) [14]	inhibition [15]	inhibition [16]	inhibition [17]	Activity [1] [µM]	Activity [2] [µM]	Activity [3]	Activity [4]	inhibition [5]	inhibition [6]
COc1cc([C@@H]2c3cc4c(cc3[C@@H](NC(=O)CNCCCNCCCNCCCN)[C@H]3COC(=O)[C@H]23)OCO4)cc(OC)c1O	2.13	Active	Active	1.17	1.52	7.85	2.21	6.03				12.2	8.1	inactive	inactive	Active	Active
COc1cc([C@@H]2c3cc4c(cc3[C@@H](NC(=O)CNCCCNCCCCNCCCN)[C@H]3COC(=O)[C@H]23)OCO4)cc(OC)c1O	2.48	Active	Active	0.92	1.49	10.3	2.68	7.85				4.8	4.3	inactive	inactive	Active	Active
CNCCCNCCCCNCCCNCC(=O)N[C@@H]1c2cc3c(cc2[C@@H](c2cc(OC)c(O)c(OC)c2)[C@H]2C(=O)OC[C@@H]21)OCO3	2.16	Active	Active	1.37	1.66	8.36	2.61	6.51				13.2	7.5	inactive	inactive	Active	Active
